Columns and labels:
Format in all cases: cell-based, mouse
[1] = system: FOXP3, Il17, Il17f, and Rorc mRNA in TH17 cells; assay: mRNA expression analysis by qRT-PCR in TH17 cells; conditions: normalized to β-actin
Experimental: (§1) At the end of differentiation (day 6), T cells were re-stimulated with plate-coated anti-CD3 and anti-CD28 for 5 hours in the absence of any small-molecule compounds or metabolites. Quantitative reverse transcriptase polymerase chain reaction (qRT-PCR) was performed to evaluate mRNA expression of FOXP3, Il17, Il17f, and Rorc. For differentiating TH17 or iTreg cells, cells were collected on day 2.5 or at the indicated time for mRNA expression analysis. The expression was normalized to β-actin.

[2] = system: differentiating iTreg cells; assay: iTreg differentiation of CD4 naïve T cells (FOXP3-GFP reporter or intracellular staining of FOXP3); conditions: AOA added after 24 hours, analyzed at end of differentiation
Experimental: CD4 naïve T cells (CD4+CD25-CD62^highCD44^low) were obtained from interleukin (IL)-17F-red fluorescent protein (RFP)/FOXP3-green fluorescent protein (GFP) mice, which were characterized previously, or wild-type C57/BL6 mice, by cell sorting. 0.4 million cells were plated into 48 wells coated with anti-mouse CD3 (clone 145-2C11, eBioscience) […] and anti-mouse CD28 (clone 37.51, eBioscience) (1 μg/ml). The differentiation media for these naïve T cells was as follows: 0.5 ng/ml (or indicated) transforming growth factor (TGF) β, 200 U/ml mouse IL-2, 2 μg/ml anti-interferon (IFN) γ and 2 μg/ml anti-mouse IL4 for differentiation into iTreg cells; and 2.5 ng/ml TGFβ, 10 ng/ml mouse IL-1β, 10 ng/ml mouse IL-6, 10 ng/ml mouse IL-23, 2 μg/ml anti-mouse IFNγ, and anti-mouse IL-4 for differentiating into TH17 cells. The cells were supplemented with new medium at day 4. In cases in which small-molecule compounds were present, the fresh medium containing the same concentration of compounds was used. When necessary, the individual metabolite was added into the T-cell culture 6 hours later after initial cell plating. […]

[3] = system: differentiating TH17 cells; assay: Intracellular metabolite profiling by LC/MS in differentiating TH17 cells
Experimental: (§2) CD4 naïve T cells, differentiating TH17 cells (day 2.5), and differentiating iTreg cells (day 2.5) were obtained as described above. A solution of 80/20 methanol (MeOH)/H2O was used to extract intracellular metabolites. The extracted samples were analyzed with liquid chromatography (LC)/mass spectrometry (MS) metabolomics. 200 ng/mL of extraction standard (L-Glutamic acid-^13C5-^15N-d5) was added into samples, and the peak value for each metabolite was normalized to extraction standard. The data was transformed into Log 2 and clustered. Cell extracts obtained as described above were analyzed for relative abundance of ^13C and ^15N metabolites by liquid chromatography-triple quadrupole mass spectrometry (LC-MS) using scheduled selective reaction monitoring (SRM) for each metabolite of interest, with the detector set to negative mode. Quantitation of intracellular 2-hydroxyglutarate (2HG) was conducted as described previously (Kernesky et al., Blood 2015, 125(2) 296-303).

[4] = system: differentiating iTreg cells; assay: U-13C glutamine flux analysis in differentiating iTreg cells; conditions: 2 mM U-13C-glutamine for 4 hours
Experimental: CD4 naïve T cells, differentiating TH17 or iTreg cells (68 hours) were incubated with fresh media prior to labeling. The cells were then cultured for 4 hours at 37° C. with medium where the glutamine was replaced with the corresponding stable isotope label: 2 mM U-^13C glutamine or 2 mM ^15N-α-glutamine for 4 hours at 37° C. The cells were quickly collected and quickly washed with phosphate buffer saline (PBS), pelleted, and snap frozen in liquid nitrogen. The frozen samples were kept in −80° C. until extraction. Cell extracts were prepared by first adding 80/20 MeOH/H2O at −60° C. to the frozen pellets and collecting the supernatant after centrifugation at 4° C. The extracted samples were analyzed by high-resolution liquid-chromatography-mass spectrometry. Unlabeled glutamine-fed cells were used as background. For negative mode metabolomics: Cell extracts obtained as described above were analyzed for relative abundance of metabolites by liquid chromatography-triple quadrupole mass spectrometry (LC-MS) using scheduled selective reaction monitoring (SRM) for each metabolite of interest, with the detector set to negative mode. Prior to injection, dried extracts were reconstituted in LC-MS grade water. LC separation was achieved by reverse-phase ion-pairing chromatography.

[5] = system: FOXP3 promoter and its intronic CpG island; assay: Methylation analysis by bisulfite sequencing, T cells under TH17 condition; conditions: 0.5 mM dimethyl R-2-HG (day 4) or AOA (day 6), male mice
Experimental: The method is essentially the same as described previously (Kim, et al. J Exp Med 204 (7), 1543-1551 (2007)). Briefly, genomic DNA was purified with Blood & Cell Culture DNA Midi Kit (Qiagen). Bisufite conversion of genomic DNA was performed using Epitect® bisulfite kit (Qiagen), according to the manufacture's instruction. The PCR product was run on 2% agarose, purified and cloned using TOPO® TA Cloning® Kit with PCR®4. Clones are picked for Sanger sequencing.

[6] = system: differentiating iTreg cells; assay: Intracellular metabolite profiling by LC/MS in differentiating iTreg cells; conditions: day 2.5, 0.5 mM AOA
Experimental: as §2

[7] = system: FOXP3 mRNA in iTreg cells; assay: mRNA expression analysis by qRT-PCR in iTreg cells; conditions: normalized to β-actin
Experimental: as §1

[8] = differentiating TH17 cells, day 2.5, 0.5 mM AOA

**Q.** With `NOCC(=O)O` [AOA, (aminooxy)-acetic acid] as the compound, how does the “FOXP3 mRNA expression” value [1] read?
**A.** Its value is “promoted transcription of FOXP3”.

**Q.** What about the “Il17/Il17f mRNA level” value ([1]; re-stimulated with anti-CD3 and anti-CD28 for 5 hours) of the same compound?
**A.** Its value is “selectively reduced the mRNA level of Il17/Il17f”.

**Q.** And the “iTreg cell induction under iTreg differentiation conditions” value [2]?
**A.** The value was “dose-dependently promote iTreg cell induction”.

**Q.** What about the “abundance of TCA cycle intermediates (α-KG, succinate, fumarate, malate, citrate)” value [3, 8] of the same compound?
**A.** Its value is “reduced partially”.

**Q.** What about the level of glutamate [3, 8] of the same compound?
**A.** The level of glutamate was “slightly higher”.

**Q.** And the “reduction of steady-state levels of 2-HG” value [3, 8]?
**A.** The value was 75%.

**Q.** What about the “level of glutathione, oxidized glutathione, or L-asparate” value ([3]; re-plotted from FIG. 2a: differentiating TH17 or iTreg cells (day 2.5), absence or presence of AOA) of the same compound?
**A.** The value was “does not affect”.

**Q.** What about the “de novo synthesis of α-KG and 2-HG (U-13C labeled, normalized to U-13C-glutamine)” value [4] of the same compound?
**A.** Its value is “inhibited”.

**Q.** What about the “methylation level of FOXP3 promoter and its intronic CpG island” value [5] of the same compound?
**A.** The value was “dramatically decreased the methylation levels”.

**Q.** And the “abundance of TCA cycle intermediates (α-KG, succinate, fumarate, malate, citrate)” value [6]?
**A.** The value was “reduced partially”.

**Q.** And the level of glutamate [6]?
**A.** The level of glutamate was “slightly higher”.

**Q.** And the “reduction of steady-state levels of 2-HG” value [6]?
**A.** Its value is 50%.

**Q.** What about the “FOXP3 mRNA expression” value [7] of the same compound?
**A.** The value was “promoted transcription of FOXP3”.

Source: patent US11241455B2, “Methods of treating disease by metabolic control of T-cell differentiation” (The J. David Gladstone Institutes, a testamentary trust …, priority 2016, dated 2022)
